In US8044211B2 (Chroma Therapeutics Ltd., priority 2006, dated 2011):

Tests used:
[1] = molecular target: T1, p38 MAP Kinase a (Homo sapiens, UniProt Q16539); assay: p38 MAP Kinase activity, radiometric filter-binding assay (Upstate); assay type: biochemical; conditions: IC50 range; ATP at or close to Km; read-out: Inhibitor activity versus p38 MAPKa
T1 construct: purchased Upstate (Dundee UK)
How it was run: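 Human p38 MAP kinase α (5-10 mU) with 0.33 mg/mL myelin basic protein, 25 mM Tris pH 7.5, 0.002 mM EGTA, 10 mM Mg acetate and [γ-33P]ATP at or near Km; 40 min at RT. Phosphoric acid stop, P30 filter binding and scintillation counting; IC50 from 9-step ⅓-log dilutions from 10 μM top concentration, duplicates.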

[2] = system: THP-1 TNFα release; assay: LPS-stimulation of THP-1 cells, TNF-α by ELISA; assay type: cell-based; conditions: Homo sapiens, THP-1; IC50 range; LPS 1 μg/ml, 6 hrs; read-out: Inhibitor activity versus THP-1 TNFα release
Procedure: THP-1 cells were plated in 100 μl at a density of 4×10^4 cells/well in V-bottomed 96 well tissue culture treated plates and incubated at 37° C. in 5% CO2 for 16 hrs. 2 hrs after the addition of the inhibitor in […], of tissue culture media, the cells were stimulated with LPS (E. coli strain 005:B5, Sigma) at a final concentration of 1 μg/ml and incubated at 37° C. in 5% CO2 for 6 hrs. TNF-α levels were measured from cell-free supernatants by sandwich ELISA (R&D Systems #QTA00B).

T1 sequence (Q16539 whole entry): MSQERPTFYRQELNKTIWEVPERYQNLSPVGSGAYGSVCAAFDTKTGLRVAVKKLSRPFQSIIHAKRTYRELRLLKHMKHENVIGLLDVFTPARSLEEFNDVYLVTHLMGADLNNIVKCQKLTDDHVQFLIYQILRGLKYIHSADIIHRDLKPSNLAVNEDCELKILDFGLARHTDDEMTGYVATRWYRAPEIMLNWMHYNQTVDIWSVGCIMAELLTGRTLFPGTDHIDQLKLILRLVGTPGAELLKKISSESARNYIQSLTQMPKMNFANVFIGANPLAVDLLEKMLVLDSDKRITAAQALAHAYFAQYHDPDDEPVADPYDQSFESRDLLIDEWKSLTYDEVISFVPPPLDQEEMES

Row | SMILES | IC50 [1] [nM] | IC50 [2] [nM]
1 | CC(C)C[C@H](NCCCCCOc1cc(F)c(-n2c(N)c(C(=O)c3ccc(F)cc3F)ccc2=O)c(F)c1)C(=O)OC(C)(C)C [Example 54, tert-Butyl N-(5-{4-[6-amino-5-(2,4-difluorobenzoyl)-2-oxopyridin-1(2H)-yl]-3,5-difluorophenoxy}pentyl)-L-leucinate] | < 100 | < 100
2 | CC(C)C[C@H](NCCc1ccc(-n2c(N)c(C(=O)c3ccc(F)cc3F)ccc2=O)cc1)C(=O)OC(C)(C)C [Example 60, tert-Butyl N-[2-(4-{6-amino-5-[(2,4-difluorophenyl)carbonyl]-2-oxopyridin-1(2H)-yl}phenyl)ethyl]-L-leucinate] | 100 to 1000 | < 100
3 | CC(C)(C)OC(=O)[C@@H](NCCc1ccc(-n2c(N)c(C(=O)c3ccc(F)cc3)ccc2=O)cc1)c1ccccc1 [Example 62, tert-Butyl (2S)-{[2-(4-{6-amino-5-[(4-fluorophenyl)carbonyl]-2-oxopyridin-1(2H)-yl}phenyl)ethyl]amino}(phenyl)ethanoate] | 100 to 1000 | 100 to 1000
4 | Cc1ccc(C(=O)c2ccc(=O)n(-c3ccc(CCN[C@@H](CC(C)C)C(=O)OC4CCCC4)cc3)c2N)cc1 [Example 63, Cyclopentyl N-[2-(4-{6-amino-5-[(4-methylphenyl)carbonyl]-2-oxopyridin-1(2H)-yl}phenyl)ethyl]-L-leucinate] | > 1000 | < 100
5 | CC(C)C[C@H](NCCCOc1ccc(-n2c(N)c(C(=O)c3ccc(F)cc3)ccc2=O)c(F)c1)C(=O)OC1CCCC1 [Example 66, Cyclopentyl N-[3-(4-{6-amino-5-[(4-fluorophenyl)carbonyl]-2-oxopyridin-1(2H)-yl}-3-fluorophenoxy)propyl]-L-leucinate] | 100 to 1000 | 100 to 1000

Next, values leading:

Row | IC50 [1] [nM] | IC50 [2] [nM] | SMILES
6 | < 100 | < 100 | CC(C)C[C@@H](NCCCOc1cc(F)c(-n2c(N)c(C(=O)c3ccc(F)cc3F)ccc2=O)c(F)c1)C(=O)OC(C)(C)C [Example 51, tert-Butyl N-(3-{4-[6-amino-5-(2,4-difluorobenzoyl)-2-oxopyridin-1(2H)-yl]-3,5-difluorophenoxy}propyl)-D-leucinate]
7 | 100 to 1000 | < 100 | CC(C)C[C@H](NCCCCCOc1cc(F)c(-n2c(N)c(C(=O)c3ccc(F)cc3)ccc2=O)c(F)c1)C(=O)OC1CCCC1 [Example 55, Cyclopentyl N-(5-{4-[6-amino-5-(4-fluorobenzoyl)-2-oxopyridin-1(2H)-yl]-3,5-difluorophenoxy}pentyl)-L-leucinate]
8 | 100 to 1000 | > 1000 | CC(C)C[C@H](NC(=O)COc1ccc(-n2c(N)c(C(=O)c3ccc(F)cc3)ccc2=O)cc1)C(=O)OC1CCCC1 [Example 56, Cyclopentyl N-({4-[6-amino-5-(4-fluorobenzoyl)-2-oxopyridin-1(2H)-yl]phenoxy}acetyl)-L-leucinate]
9 | 100 to 1000 | < 100 | Nc1c(C(=O)c2ccc(F)cc2)ccc(=O)n1-c1ccc(CCN[C@H](C(=O)OC2CCCC2)c2ccccc2)cc1 [Example 61, Cyclopentyl(2S)-{[2-(4-{6-amino-5-[(4-fluorophenyl)carbonyl]-2-oxopyridin-1(2H)-yl}phenyl)ethyl]amino}(phenyl)ethanoate]
10 | > 1000 | 100 to 1000 | COc1ccc(C(=O)c2ccc(=O)n(-c3ccc(CCN[C@@H](CC(C)C)C(=O)OC4CCCC4)cc3)c2N)cc1 [Example 64, Cyclopentyl N-[2-(4-{6-amino-5-[(4-methoxyphenyl)carbonyl]-2-oxopyridin-1(2H)-yl}phenyl)ethyl]-L-leucinate]
11 | 100 to 1000 | < 100 | CC(C)C[C@H](NCCc1ccc(-n2c(N)c(C(=O)c3ccc(Cl)cc3)ccc2=O)cc1)C(=O)OC1CCCC1 [Example 65, Cyclopentyl N-[2-(4-{6-amino-5-[(4-chlorophenyl)carbonyl]-2-oxopyridin-1(2H)-yl}phenyl)ethyl]-L-leucinate]
